Test results as given in patent publication US6790603B2, “Compositions for the storage of platelets” (Bioenergy, Inc., priority 1999, dated 2004).

Columns and labels:
platelets [1] = experiment: Platelet aggregation on thrombin challenge (optical density / aggregometer); format: cell-based
Procedure: As a second measure of the effect of ribose on platelets, platelet aggregation was estimated. Platelet aggregation is a crucial function of platelet activity; platelets that cannot aggregate are essentially nonfunctional. Platelets were stored as above.
The optical density of the suspension was measured before and after thrombin challenge.
Platelet aggregation was measured with a platelet aggregometer (Chronolog, Inc., Irvine, Calif.). Platelet-rich, turbid suspensions were stirred in a cuvette and the transmittance of light through the sample relative to a platelet poor blank is recorded. When a aggregating agent is added, activated platelets with exposed fibrinogen receptors (GPIIbIIIa) are brought in close contact with each other in a medium containing calcium and fibrinogen and form increasingly large platelet aggregates, accompanied by a decrease in turbidity. The change in optical density was then translated by the instrument to percent aggregation. Simple stated, as platelets clump, more light passes through the cuvette.

platelets [2] = experiment: Preservation of function in stored platelets (ATP secretion, aggregation, P-selectin expression, pH, platelet count); format: cell-based
Procedure: It is known that other pentoses may have similar effects as D-Ribose, either through intracellular conversion to ribose or a direct effect. Ribulose-5-phosphate, xylulose-5-phosphate and xylitol were tested for preservation of activity in stored platelets according to the methods of examples 1 to 6.
Ribulose-5-phosphate was purchased from Sigma Chemical (St. Louis) and added to the standard CPD platelet storage solution. The following parameters of function were tested: ATP secretion in response to 10 nM thrombin; platelet aggregation; P-selectin expression in response to thrombin challenge; pH change; and platelet count. Platelet concentrate bags were obtained from a transfusion center within hours of collection. Aliquots were sampled from the platelet bags and concentrations of ribulose-5-phosphate were added for a final concentration from 1.5 mM down to 150 pM. Controls without ribulose-5-phosphate were analyzed for comparison. Samples were analyzed every 24 hours for platelet function.

platelets [3] = experiment: ATP secretion in response to 10 nM thrombin (luciferin/luciferase assay); format: cell-based
Text: The platelet dense granules shown in FIG. 1 contain ATP which is released in response to platelet agonists such as thrombin, collagen or adenosine diphosphate (ADP). The release reaction of ATP from platelets serves as another method to monitor platelet function. There are many methods to analyze ATP. A convenient method is the well known luciferin/luciferase reaction (Sigma Chemical, St. Louis). This assay is derived from the light producing system of the firefly. The substrate luciferin, in the presence of ATP, is cleaved by the enzyme luciferase, accompanied by the emission of light. The emitted light is measured by a photomultiplier tube
Platelet suspensions containing about 350 units in 4 μl were mixed with 10 μl luciferin/luciferase reagent. An agonist is injected. As the platelet dense granules release ATP, the bioluminescent reaction occurs, which is measured by the photomultiplier tube. […] The rate of reaction is recorded and as platelet function decays, the rate decays. Total ATP was measured by lysing the cells with Triton and determining ATP content. The results as presented in Table III are expressed as intact rate of ATP secretion.

bacteria = experiment: Bacterial contamination of platelet storage solution (colony counts in Petri dishes); conditions: D-Ribose added to storage cocktail
Procedure: Bacterial contamination was measured by colony counts in standard Petri dishes that had been inculated with the test solution. It is assumed that the millimolar glucose concentration in most platelet storage solutions contributes to the growth of bacteria. As noted above, Murphy (Table II) discloses a glucose-free solution for the storage of platelets. Elimination of reduction of glucose levels from millimolar to micromolar concentrations has a profound effect in reducing bacterial contamination, however, platelet function at five days, as measured by ATP secretion and P-selectin expression, was poor.

[4] = 30 grams of ribose each day; cited from earlier work
whole blood = conditions: 15 mM ribose; cited from earlier work
platelets [5] = experiment: P-selectin expression in stored platelets, basal and after 10 nM thrombin challenge (flow cytometry); format: cell-based
Procedure: A basal measurement of spontaneous activation is obtained and the cells are then challenged with an agonist. The difference between cells challenged to activate minus the basal measurement is a measure of cell function. In the preferred embodiment, the agonist is 10 nM thrombin. P-selectin expression in response to a challenge of 10 nM thrombin is a highly accurate and quantitative method to assess platelet function using flow cytometry techniques. A monoclonal antibody to the platelet GPIIbIIIa receptor (Becton-Dickinson) is conjugated with green fluorescence, marking all platelets with a green detection. […] About 10,000 to 25,000 platelets are counted and measured for P-selectin expression and the % positive cells are defined as activated platelets that express P-selectin. Platelets that are activated are not capable of being activated a second time; that is, they are essentially nonfunctional. It was proposed years ago by Dawson (Transfusion 21:215-218. (1981)) that ribose at the concentration of 15 mM is beneficial to stored whole blood. It was assumed that ribose functioned by raising the energy levels of the cells, as discussed at length in U.S. Pat. No. 6,159,942. […] Platelet function was assessed by ATP secretion, platelet aggregation, P-selectin expression, platelet count and pH. Platelet function was measured every 24 hours. […]

## O=C[C@H](O)[C@H](O)[C@H](O)CO [D-Ribose]
Platelets [1]; day 3, 10 nM thrombin
  Platelet samples with aggressive aggregation response: all five
Platelets [1]; day five, thrombin
  Platelet samples responding (aggregation): four out of five
Platelets [1]; day seven, thrombin
  Platelet samples able to aggregate: three out of five
Platelets [1]; platelets stored in 150 pM D-Ribose
  Aggregation on thrombin challenge: no aggregation
Platelets [1]; platelets stored in 150 nM D-Ribose
  Aggregation on thrombin challenge: strong aggregation
Platelets [1]; platelets stored in 15 μM D-Ribose
  Aggregation on thrombin challenge: very weak effect
Platelets [1]; platelets stored in 1.5 mM D-Ribose
  Aggregation on thrombin challenge: no aggregation
Platelets [2]; 150 nM D-Ribose, glucose eliminated or reduced to micromolar
  Platelet function compared with storage in presence of glucose: similar
Platelets [3]; 1.5 nM D-Ribose
  Preservative effect on ATP secretion: no preservative effect
Platelets [3]; 150 nM D-Ribose
  Rise in total ATP content of treated cells: more than 10%
Platelets [3]; 15 mM D-Ribose
  Toxicity to platelets: toxic to platelets
Platelets [3]; optimal D-Ribose (150 nM), day 7
  Mean ATP secretion activity, % of baseline: > 80%
bacteria
  Bacterial contamination: lower incidence of bacterial contamination
[4]
  Tolerability of ingestion: no ill effects
Whole blood
  Effect on stored whole blood: beneficial
Platelets [5]; 150 pM D-Ribose, five days storage
  Preservation of function (P-selectin expression test): ineffective
Platelets [5]; 153 nM D-Ribose, three days storage, basal
  % positive (activated) cells: 5%

## O=C(CO)[C@H](O)[C@H](O)COP(=O)(O)O [ribulose-5-phosphate, Ribulose-5-phosphate]
Platelets [2]; 1.5 mM down to 150 pM, analyzed every 24 hours
  Platelet function parameters versus controls: No difference from controls

## OC[C@@H](O)[C@H](O)[C@@H](O)CO [xylitol]
Platelets [2]; trends inconsistent
  Preservation of platelet function: some benefit

## O=C(CO)[C@@H](O)[C@H](O)COP(=O)(O)O [xylulose-5-phosphate, Xylulose-5-phosphate]
Platelets [1]; five days storage
  Platelet aggregation: weak
